Measurements taken from patent publication US7935708B2, “Dihydropyrazolopyrimidinone derivatives” (MSD K.K., priority 2006, dated 2011).

Tests used:
[1] = test system: Cdc2 (Cdk1) tyrosine 15 phosphorylation in WiDr cells; assay: Cdc2 (Cdk1) tyrosine 15-phosphorylation-inhibitory effect in gemcitabine-treated WiDr cells (ELISA); type: cell-based; conditions: Homo sapiens, gemcitabine 100 nM 24 hours, then test compound with nocodazole 8 hours, read-out: Cdc2-Y15 Phosphorylation-Inhibitory Effect (WiDr, + gemcitabine) (EC50)
Source text: (§1) Pharmaceutical Text 2 (Method of Determining Drug Potency in Cells (Cdc2 (Cdk1) Tyrosine 15-Phosphorylation-Inhibitory Effect))
(§2) Fetal bovine serum (FBS) was obtained from Morgate; media RPMI1640 and DMEM were from Invitrogen; camptothecin was from Sigma; gemcitabine was from Nippon Eli Lilly; nocodazole and protease inhibitor cocktail were from Sigma; rabbit anti-Cdc2 antibody and mouse anti-Cdc2 antibody were from Santa Cruz Biotechnology; rabbit anti-tyrosine 15-phosphorylated Cdc2 antibody and horseradish peroxidase-labeled anti-mouse IgG antibody were from Cell Signaling Technology; sure blue reserve TMB peroxidase substrate was from Kirkegaard and Perry Laboratories.
(§3) Human non-small cell lung cancer cells (NCI-H1299) and human colon cancer cells (WiDr) were obtained from American Type Culture Collection (ATCC).
(§4) c) Method of Effect Determination:
In the method of using WiDr cells, the cells were suspended in DMEM containing 10% FBS, and the cell suspension was applied to a 96-well Nunclondelta-processed plastic plate in an amount of 2000 cells/100 μL/well, in which the cells were incubated overnight in 5% CO2-95% air at 37° C. Gemcitabine was dissolved in PBS, and diluted with DMEM containing 10% FBS, and then this was applied to the plate on which the cells had been previously sowed, in an amount of 50 μL/well in such a manner that the final concentration of gemcitabine could be 100 nM. Then, the cells were incubated for 24 hours at 37° C. in 5% CO2-95% air. The test compound was stepwise diluted with DMSO, then diluted with 1200 nM nocodazole-containing DMEM containing 10% FBS, and applied to the plate on which the gemcitabine-treated cells had been sowed, in an amount of 50 μL/well. The cells were incubated for 8 hours at 37° C. in 5% CO2-95% air, then the culture was removed, and a cytolytic buffer was added to the plate in an amount of 100 μL/well, shaken at 4° C. for 2 hours, then frozen at −80° C., and melted to give a cell solution. Cdc2 and tyrosine 15-phosphorylated Cdc2 in the cell solution were determined through ELISA, and the ratio of tyrosine 15-phosphorylated Cdc2 to Cdc2 was calculated to obtain the 50% phosphorylation-inhibitory concentration of the test compound to the cells (EC50, nM). Cdc2 was determined through ELISA as follows: A rabbit anti-Cdc2 antibody solution, which had been diluted 200-fold with 50 mM carbonate-bicarbonate buffer (pH 9.6), was applied to a 96-well maxisorp plastic plate in an amount of 50 μL/well, and statically kept overnight at 4° C. so as to fix the antibody on the plate. Next, this was washed three times with PBS, and 5% BSA/PBS was added thereto in an amount of 300 μL/well, and statically kept at room temperature for 2 hours, and then again washed three times with PBS. A mouse anti-Cdc2 antibody solution that had been diluted 100-fold with 1% BSA/TBS-T was added to it in an amount of 50 μL/well, and the cell solution was added thereto in an amount of 10 μL/well and statically kept overnight at 4° C. Next, this was washed three times with 0.1% BSA/TBS-T, and then a horseradish peroxidase-labeled anti-mouse IgG antibody solution that had been diluted 2000-fold with 1% BSA/TBS-T was added thereto in an amount of 70 μL/well, and statically kept at room temperature for 3 hours. Finally, this was washed five times with 0.1% BSA/TBS-T, then a substrate of sure blue reserve TMB peroxidase was added to it in an amount of 100 μL/well, and left for coloration in a dark place at room temperature for 15 minutes. Then, 1 M hydrochloric acid was added to it in an amount of 100 μL/well to stop the reaction, and this was analyzed through colorimetry. […]

[2] = test system: Cdc2 (Cdk1) tyrosine 15 phosphorylation in NCI-H1299 cells; assay: Cdc2 (Cdk1) tyrosine 15-phosphorylation-inhibitory effect in camptothecin-treated NCI-H1299 cells (ELISA); type: cell-based; conditions: Homo sapiens, camptothecin 200 nM 16 hours, then test compound with nocodazole 8 hours, read-out: Cdc2-Y15 Phosphorylation-Inhibitory Effect (H1299, + camptothecin) (EC50)
Source text: as §1, §2, §3, §4
In the method of using NCI-H1299 cells, the cells were suspended in RPMI1640 containing 10% FBS, and the cell suspension was applied to a 96-well Nunclondelta-processed plastic plate (bought from Nunc), in an amount of 2000 cells/100 μL/well, in which the cells were incubated overnight in 5% CO2-95% air at 37° C. Camptothecin was dissolved in dimethylsulfoxide (DMSO), and diluted with RPMI1640 containing 10% FBS, and then this was applied to the plate on which the cells had been previously sowed, in an amount of 50 μL/well in such a manner that the final concentration of camptothecin could be 200 nM. Then, the cells were incubated for 16 hours at 37° C. in 5% CO2-95% air. The test compound was stepwise diluted with DMSO, then diluted with 4000 nM nocodazole-containing RPMI1640 containing 10% FBS, and applied to the plate on which the camptothecin-treated cells had been sowed, in an amount of 50 μL/well. The cells were incubated for 8 hours at 37° C. in 5% CO2-95% air, then the medium was removed, and a cytolytic buffer was added to the plate in an amount of 100 μL/well, shaken at 4° C. for 2 hours, then frozen at −80° C., and melted to give a cell solution. Cdc2 and tyrosine 15-phosphorylated Cdc2 in the cell solution were determined through enzyme-linked immunosorbent assay (ELISA), and the ratio of tyrosine 15-phosphorylated Cdc2 to Cdc2 was calculated to obtain the 50% phosphorylation-inhibitory concentration of the test compound to the cells (EC50, nM). The cytolytic buffer used herein is an aqueous solution containing 20 mM Hepes (pH 7.5), 150 mM sodium chloride, 1 mM disodium ethylenediaminetetraacetate, 0.1% polyoxyethylene (10) octylphenyl ether, 1% protease inhibitor cocktail, 1 mM dithiothreitol, 2 mM sodium orthovanadate, 10 mM sodium fluoride and 10 mM glycerol diphosphate. Cdc2 was determined through ELISA as follows: A rabbit anti-Cdc2 antibody solution, which had been diluted 200-fold with 50 mM carbonate-bicarbonate buffer (pH 9.6), was applied to a 96-well maxisorpimmuno plate (bought from Nunc), in an amount of 50 μL/well, and statically kept overnight at 4° C. so as to fix the antibody on the plate. Next, this was washed three times with phosphate-buffered saline (PBS), and 5% bovine serum albumin-containing PBS (5% BSA/PBS) was added thereto in an amount of 300 μL/well, and statically kept at room temperature for 2 hours, and then again washed three times with PBS. A mouse anti-Cdc2 antibody solution that had been diluted 100-fold with 0.05% polyoxyethylene sorbitan monolaurate and 1% BSA-containing Tris-HCl-buffered saline (1% BSA/TBS-T) was added to it in an amount of 50 μL/well, and the cell solution was added thereto in an amount of 5 μL/well and statically kept overnight at 4° C. Next, this was washed three times with 0.05% polyoxyethylene sorbitan monolaurate and 0.1% BSA-containing Tris-HCl-buffered saline (0.1% BSA/TBS-T), and then a horseradish peroxidase-labeled anti-mouse IgG antibody solution that had been diluted 2000-fold with 1% BSA/TBS-T was added thereto in an amount of 70 μL/well, and statically kept at room temperature for 3 hours. […]

Structure (SMILES)	EC50 [1]	EC50 [2]
C=CCn1c(=O)c2cnc(Nc3ccc(N4CCN(C)CC4)cc3)nc2n1-c1cccc(CN(C)S(C)(=O)=O)n1 [Example 99, N-{[6-(2-allyl-6-{[4-(4-methylpiperazin-1-yl)phenyl]amino}-3-oxo-1,2-dihydro-3H-pyrazolo[3,4-d]pyrimidin-1-yl)pyridin-2-yl]methyl}-N-methylmethanesulfonamide]	122 nM	86 nM
C=CCn1c(=O)c2cnc(Nc3ccc(N4CCN(C)CC4)c(C)c3)nc2n1-c1cccc(OCCO)n1 [Example 98, 2-allyl-1-[6-(2-hydroxyethoxy)pyridin-2-yl]-6-{[3-methyl-4-(4-methylpiperazin-1-yl)phenyl]amino}-1,2-dihydro-3H-pyrazolo[3,4-d]pyrimidin-3-one]	39 nM	83 nM
C=CCn1c(=O)c2cnc(Nc3ccc(N4CCN(C)CC4)cc3)nc2n1-c1cccc(C(=O)N(C)C)c1 [Example 1, 3-(2-allyl-6-{[4-(4-methylpiperazin-1-yl)phenyl]amino}-3-oxo-1,2-dihydro-3H-pyrazolo[3,4-d]pyrimidin-1-yl)-N,N-dimethylbenzamide]	143 nM	104 nM
Cc1cc(Nc2ncc3c(=O)n(Cc4ccccc4)n(-c4ccccc4)c3n2)ccc1N1CCN(C)CC1 [Example 111, 2-benzyl-6-{[3-methyl-4-(4-methylpiperazin-1-yl)phenyl]amino}-1-phenyl-1,2-dihydro-3H-pyrazolo[3,4-d]pyrimidin-3-one]	–	93 nM
C=CCn1c(=O)c2cnc(Nc3ccc(N4CCN(C)CC4)cc3)nc2n1-c1cccc(CN(C)C)c1 [Example 26, 2-allyl-1-[3-(dimethylaminomethyl)phenyl]-6-{[4-(4-methylpiperazin-1-yl)phenyl]amino}-1,2-dihydro-3H-pyrazolo[3,4-d]pyrimidin-3-one]	–	114 nM

The next lines start with the values.

EC50 [1]	EC50 [2]	Structure (SMILES)
8 nM	–	C#CCn1c(=O)c2cnc(Nc3ccc(N4CCN(C)CC4)cc3)nc2n1-c1cccc(C(C)(C)O)n1 [Example 113, 1-[6-(1-hydroxy-1-methylethyl)pyridin-2-yl]-6-{[4-(4-methylpiperazin-1-yl)phenyl]amino}-2-(2-propynyl)-1,2-dihydro-3H-pyrazolo[3,4-d]pyrimidin-3-one]
350 nM	247 nM	C=CCn1c(=O)c2cnc(Nc3ccc(N4CCN(C)CC4)cc3)nc2n1-c1cccc(C(C)(C)O)c1 [Example 19, 2-allyl-1-[3-(1-hydroxy-1-methylethyl)phenyl]-6-{[4-(4-methylpiperazin-1-yl)phenyl]amino}-1,2-dihydro-3H-pyrazolo[3,4-d]pyrimidin-3-one]
–	188 nM	C=CCn1c(=O)c2cnc(Nc3ccc(N4CCN(C)CC4)c(CO)c3)nc2n1-c1ccccn1 [Example 29, 2-allyl-6-{[3-hydroxymethyl-4-(4-methylpiperazin-1-yl)phenyl]amino}-1-pyridin-2-yl-1,2-dihydro-3H-pyrazolo[3,4-d]pyrimidin-3-one]
–	46 nM	C=CCn1c(=O)c2cnc(Nc3ccc(N4CCN(C)CC4)c(C)c3)nc2n1-c1cccc(CN(C)C)n1 [Example 52, 2-allyl-1-{6-[(dimethylamino)methyl]pyridin-2-yl}-6-{[3-methyl-4-(4-methylpiperazin-1-yl)phenyl]amino}-1,2-dihydro-3H-pyrazolo[3,4-d]pyrimidin-3-one]
